The source of these data is patent US11441138B2, “Method for selection of high M6P recombinant proteins” (Amicus Therapeutics, Inc., priority 2016, dated 2022).

pKd: −log10 of the molar value. Where two headings read alike, the source gives them in different places.

Data set [1] in a line: Apparent plasma half-life in vivo.
For data set [2], the system named is subjects with Pompe disease. To be noted: cited from earlier work.
Data set [3] can be described thus: Phase 1/2 study: plasma miglustat pharmacokinetics. The data set is classed as in vivo, human. To be noted: for half-life / Vd/F / AUC(0-inf) / AUC(0-t) / Cmax / Tmax: both sexes, human, plasma, po; for half-life / Vd/F / AUC(0-inf) / AUC(0-t) / Cmax / Tmax / CL/F: plasma miglustat; for half-life / Vd/F / CL/F: arithmetic mean; for Vd/F: read-out: Vz/F; for AUC(0-inf) / AUC(0-t) / Cmax: geometric mean; for Tmax: median. As for the experimental part: (§1) Mean total GAA protein and miglustat PK results from the first 8 Cohort 1 patients through Visit 9 and the first 2 Cohort 3 patients were assessed.

A further data set has as its target ATB200 (Homo sapiens, UniProt P10253, H199R/R223H/V780I). In words: Stabilization of ATB200 by miglustat. The following applies: neutral pH of plasma.
For data set [4], the target named is T1, CIMPR (Homo sapiens, UniProt P11717). The data set can be described thus: CIMPR affinity chromatography of rhGAA (bound vs unbound GAA activity). The class given is binding. To be noted: for CIMPR binding compared with ATB200 rhGAA: FIGS. 4A, 4B, 7A, 7B; for rhGAA bound to CIMPR / containing M6P (eluted with M6P) / rhGAA that did not bind to the CIMPR (GAA activity eluted prior to addition of M6P): fraction of total enzyme by GAA activity. How it is done:
To evaluate the ability of the rhGAA in Myozyme® and Lumizyme®, the only currently approved treatments for Pompe disease, these rhGAA preparations were injected onto a CIMPR column (which binds rhGAA having M6P groups) and subsequently eluted with a free […] gradient. Fractions were collected in 96-well plate and GAA activity assayed by 4MU-α-glucose substrate. The relative amounts of bound and unbound rhGAA were determined based on GAA activity and reported as the fraction of total enzyme.
Multiple batches of the rhGAA according to the invention were produced in shake flasks and in perfusion bioreactors using CHO cell line GA-ATB-200 and CIMPR binding was measured.

Data set [5] deals with Gaa knockout mice. The data set can be described thus: Muscle physiology and morphology in Gaa-knockout mice. The following applies: rhGAA 20 mg/kg IV every other week; miglustat 10 mg/kg oral 30 mins prior; compared to alglucosidase alfa. The class given is in vivo, mouse. How it is done:
Control mice were treated with vehicle alone. Soleus, quadriceps and diaphragm tissue is harvested two weeks after the last dose of recombinant human acid α-glucosidase. […] Semi-thin sections of quadriceps muscle embedded in epoxy resin (Epon) were stained with methylene blue and observed by […] (1000×) to determine the extent of the presence of vacuoles. […] Control mice were treated with vehicle alone. Cardiac muscle tissue was harvested two weeks after the last dose of recombinant human acid α-glucosidase and analyzed for glycogen levels, by staining with periodic acid-Schiff reagent (PAS), and for lysosome proliferation, by measuring levels of LAMP1.

Data set [6] relates to Gaa knockout mice. In words: Glycogen reduction in Gaa knockout mice, two IV bolus administrations. The data set is classed as in vivo, mouse. An excerpt: Animals were given two IV bolus administrations (every other week); tissues were harvested two weeks after the last dose and analyzed for acid α-glucosidase activity and glycogen content.
In data set [7] the test system is GAA KO mice. In words: Glycogen clearance in GAA KO mice, 4 injections with or without miglustat (FIG. 15). To be noted: rhGAA 20 mg/kg IV every other week, miglustat 10 mg/kg PO 30 min prior where co-administered, 14 days after last dose. The class given is in vivo, mouse. The text has this: Tissues were collected 14 days after last enzyme dose for glycogen measurement.

Data set [8] deals with Pompe fibroblasts and skeletal muscle myoblasts. The data set can be described thus: Internalization by Pompe fibroblasts and skeletal muscle myoblasts. The class given is cell-based.
Data set [9] has as its system normal and Pompe fibroblast cell lines. In words: Cellular uptake of rhGAA by fibroblasts (16-hr incubation, 4MU-α-Glucoside hydrolysis). The following applies: for concentration that saturates cellular receptors: normal and Pompe fibroblasts, 16-hr incubation. The class given is cell-based. How it is done:
The relative cellular uptake of ATB200 and Lumizyme® rhGAA were compared using normal and Pompe fibroblast cell lines. […] After 16-hr incubation, external rhGAA was inactivated with TRIS base and cells were washed 3-times with PBS prior to harvest. Internalized GAA measured by 4MU-α-Glucoside hydrolysis and was graphed relative to total cellular protein and the results appear in FIGS. 13A-13B.

Data set [10] is described as follows: Phase 1/2 study: plasma total GAA protein pharmacokinetics. Details: species or system human. To be noted: in vivo.
Data set [11] relates to GAA KO mice. In words: Muscle function in Gaa-knockout mice, longer-term studies. The data set is classed as in vivo, mouse.
Data set [12] relates to adults with Pompe disease. In words: Phase 1/2 study: safety. The following applies: no infusion-associated reactions to date. The class given is in vivo, human. As for the experimental part: as §1
Data set [13] addresses T1, CIMPR. In words: CIMPR plate binding assay. As for the experimental part:
In addition to having a greater percentage of rhGAA that can bind to the CIMPR, it is important to understand the quality of that interaction. […] Briefly, CIMPR-coated plates were used to capture GAA. Varying concentrations of rhGAA were applied to the immobilized receptor and unbound rhGAA was washed off. The amount of remaining rhGAA was determined by GAA activity.

The mark [14] stands for this setting: 130 mg, Low (about 130 mg oral) MD.
Setting [15] is: 130 mg, Low (about 130 mg oral) SD.
The mark [16] stands for this setting: 260 mg, High (about 260 mg oral) MD.
Setting [17] is: 260 mg, High (about 260 mg oral) SD.

T1 sequence (P11717 41-2491, species assumed): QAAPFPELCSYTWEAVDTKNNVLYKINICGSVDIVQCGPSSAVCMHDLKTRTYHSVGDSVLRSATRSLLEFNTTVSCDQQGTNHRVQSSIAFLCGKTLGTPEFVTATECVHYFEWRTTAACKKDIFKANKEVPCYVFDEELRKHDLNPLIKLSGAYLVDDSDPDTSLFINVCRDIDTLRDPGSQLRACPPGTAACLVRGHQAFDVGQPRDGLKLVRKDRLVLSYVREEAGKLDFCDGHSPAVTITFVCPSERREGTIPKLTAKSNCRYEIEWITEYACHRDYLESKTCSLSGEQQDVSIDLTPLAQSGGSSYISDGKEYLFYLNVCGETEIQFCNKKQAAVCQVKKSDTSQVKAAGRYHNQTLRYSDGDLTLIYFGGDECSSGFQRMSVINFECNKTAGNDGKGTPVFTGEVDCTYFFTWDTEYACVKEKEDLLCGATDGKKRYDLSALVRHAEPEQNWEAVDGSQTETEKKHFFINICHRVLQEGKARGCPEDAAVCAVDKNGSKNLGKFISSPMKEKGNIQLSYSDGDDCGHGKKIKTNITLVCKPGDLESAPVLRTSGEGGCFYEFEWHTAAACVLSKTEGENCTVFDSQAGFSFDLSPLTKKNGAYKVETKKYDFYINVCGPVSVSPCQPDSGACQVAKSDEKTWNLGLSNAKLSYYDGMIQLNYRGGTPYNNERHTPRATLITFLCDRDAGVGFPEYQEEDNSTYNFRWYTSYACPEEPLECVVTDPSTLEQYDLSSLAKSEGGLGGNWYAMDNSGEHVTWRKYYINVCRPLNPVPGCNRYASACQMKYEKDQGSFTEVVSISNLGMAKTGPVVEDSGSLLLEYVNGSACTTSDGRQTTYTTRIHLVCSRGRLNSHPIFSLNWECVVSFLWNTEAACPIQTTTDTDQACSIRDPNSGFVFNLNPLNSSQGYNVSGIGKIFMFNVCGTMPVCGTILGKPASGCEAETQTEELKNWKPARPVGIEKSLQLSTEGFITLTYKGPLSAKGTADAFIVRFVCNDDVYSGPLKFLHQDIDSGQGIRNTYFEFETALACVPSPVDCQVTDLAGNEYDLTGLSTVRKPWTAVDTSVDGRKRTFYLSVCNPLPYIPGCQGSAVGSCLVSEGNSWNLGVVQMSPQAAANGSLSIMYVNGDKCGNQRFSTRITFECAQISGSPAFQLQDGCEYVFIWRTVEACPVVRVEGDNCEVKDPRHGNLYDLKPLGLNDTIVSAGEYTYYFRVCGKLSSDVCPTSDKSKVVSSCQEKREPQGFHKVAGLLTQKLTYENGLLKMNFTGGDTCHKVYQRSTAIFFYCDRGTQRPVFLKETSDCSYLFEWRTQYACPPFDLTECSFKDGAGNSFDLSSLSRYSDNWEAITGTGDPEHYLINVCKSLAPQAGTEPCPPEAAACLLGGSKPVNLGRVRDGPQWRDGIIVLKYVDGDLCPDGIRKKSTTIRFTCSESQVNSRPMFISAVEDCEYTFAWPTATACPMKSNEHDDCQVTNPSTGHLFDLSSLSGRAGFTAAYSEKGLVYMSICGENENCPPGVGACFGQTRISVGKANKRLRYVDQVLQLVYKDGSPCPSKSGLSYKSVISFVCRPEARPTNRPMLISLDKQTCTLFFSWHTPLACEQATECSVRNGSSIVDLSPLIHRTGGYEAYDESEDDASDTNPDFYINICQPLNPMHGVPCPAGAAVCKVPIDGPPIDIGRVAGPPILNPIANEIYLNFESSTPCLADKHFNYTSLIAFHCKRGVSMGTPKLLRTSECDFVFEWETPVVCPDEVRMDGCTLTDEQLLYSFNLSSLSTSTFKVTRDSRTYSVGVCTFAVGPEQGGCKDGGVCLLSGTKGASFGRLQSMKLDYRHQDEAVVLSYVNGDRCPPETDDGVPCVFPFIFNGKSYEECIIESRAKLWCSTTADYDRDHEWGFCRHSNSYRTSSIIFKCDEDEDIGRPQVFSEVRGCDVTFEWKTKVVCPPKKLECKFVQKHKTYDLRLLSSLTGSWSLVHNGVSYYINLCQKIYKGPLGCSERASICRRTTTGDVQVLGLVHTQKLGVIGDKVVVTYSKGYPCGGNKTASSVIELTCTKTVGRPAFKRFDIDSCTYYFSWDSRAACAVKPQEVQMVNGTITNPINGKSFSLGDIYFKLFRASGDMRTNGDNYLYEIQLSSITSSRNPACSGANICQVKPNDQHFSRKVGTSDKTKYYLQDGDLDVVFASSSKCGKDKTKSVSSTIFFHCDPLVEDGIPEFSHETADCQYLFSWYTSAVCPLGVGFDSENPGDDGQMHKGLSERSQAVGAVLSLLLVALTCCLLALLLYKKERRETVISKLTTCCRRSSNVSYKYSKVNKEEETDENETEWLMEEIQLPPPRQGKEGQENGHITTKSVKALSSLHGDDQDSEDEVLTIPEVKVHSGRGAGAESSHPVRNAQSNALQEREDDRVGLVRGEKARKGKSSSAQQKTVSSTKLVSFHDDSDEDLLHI

Regarding “[199-arginine,223-histidine]prepro-α-glucosidase (human) [alglucosidase alfa]”, the “apparent plasma half-life (t1/2)” value in data set [1] was approximately 1 h. Moreover, in data set [2] (compared to historical controls), the “survival in infantile onset Pompe disease” value was “significantly improve survival”. Moreover, the “effect on 6-Minute Walk Test (6MWT) and forced vital capacity (FVC) in late onset Pompe disease” value in [2] (compared to placebo) is listed as “statistically significant, if modest, effect”.
For orientation: half-life means the time needed for the level to fall by half in the phase considered. As a reminder, the AUC(0-inf) is total exposure, with the tail of the curve extrapolated. Broadly, the AUC(0-t) is exposure summed from dosing to a finite time, without extrapolation to infinity. Broadly, the Cmax is the peak of the concentration-time curve. What is called Tmax is the time at which the peak concentration occurs. A word on the CL/F: it is the apparent clearance, not corrected for the fraction that reaches the circulation. As for `CCCCN1C[C@H](O)[C@@H](O)[C@H](O)[C@H]1CO` [miglustat, (2R,3R,4R,5S)-1-butyl-2-(hydroxymethyl)piperidine-3,4,5-triol], the “dose proportionality of plasma miglustat” value in data set [3] (130 mg and 260 mg oral) is “dose-proportional kinetics”. Further, the half-life was 5.9 h in data set [3] (setting [14]), 5.6 h in data set [3] (setting [15]), 5.3 h in [3] (setting [16]) and 5.7 h in data set [3] (setting [17]). Besides, the Vd/F was found to be 86.7 L in data set [3] (setting [14]), 85.8 L in data set [3] (setting [15]), 81 L in data set [3] (setting [16]) and 86.3 L in data set [3] (setting [17]). The area under the curve AUC(0-inf) in [3] (setting [14]) is 13100 ng·h/mL; in data set [3] (setting [15]), 12600 ng·h/mL; in [3] (setting [16]), 26000 ng·h/mL; in [3] (setting [17]), 25900 ng·h/mL. For the same compound, the exposure AUC(0-t) turned out to be 12300 ng·h/mL in data set [3] (setting [14]), 11800 ng·h/mL in data set [3] (setting [15]), 25000 ng·h/mL in data set [3] (setting [16]) and 24000 ng·h/mL in data set [3] (setting [17]). The highest concentration (Cmax) is 1520 ng/mL in data set [3] (setting [14]), 1490 ng/mL in data set [3] (setting [15]), 3570 ng/mL in [3] (setting [16]) and 3060 ng/mL in data set [3] (setting [17]). Further, the time to peak (Tmax) in data set [3] (setting [14]) amounted to 3 h; in [3] (setting [15]), 3.5 h; in [3] (setting [16]) it was 3 h; in [3] (setting [17]) it was 3.5 h. The apparent clearance CL/F in data set [3] (High (about 260 mg oral) MD) is 10.3 L/h; in [3] (High (about 260 mg oral) SD), 10.6 L/h; in [3] (Low (about 130 mg oral) MD), 10.2 L/h; in data set [3] (Low (about 130 mg oral) SD), 10.6 L/h. In addition, at ATB200, the “effect on unfolded ATB200 protein / active conformation” value is recorded as “decrease the percentage of unfolded ATB200 protein”.
In the case of “Myozyme®: conventional rhGAA product (alglucosidase alfa) marketed by Genzyme”, in the data set with CIMPR [4], the “CIMPR binding compared with ATB200 rhGAA” value was “significantly less CIMPR binding”, the “rhGAA bound to CIMPR / containing M6P (eluted with M6P)” value turned out to be 27% and the “rhGAA that did not bind to the CIMPR (GAA activity eluted prior to addition of M6P)” value is 73%.
The term Vss denotes a proportionality between amount in the body and measured concentration, not a real space. High values mean wide distribution into tissue, low ones little distribution into tissue. The pKd is the Kd on a negative log10 scale, so that one unit is a factor of ten. Low values mean a large Kd, high ones a small Kd. In the case of “ATB200: recombinant human acid α-glucosidase with high M6P content, expressed in CHO cells, described in co-pending application PCT/US2015/053252”, in the data set with Gaa knockout mice [5], the “lysosome proliferation (LAMP1) in heart, diaphragm and soleus” value is listed as “reduction in lysosome proliferation”; the “punctate glycogen levels (PAS) in heart and soleus” value is “reduction in punctate glycogen levels”. Besides, the “depletion of tissue glycogen” value in the data set with Gaa knockout mice [6] (5, 10 and 20 mg/kg, two IV bolus every other week, tissues two weeks after last dose) is reported as “dose-dependent fashion”. For the same compound, the “reduction of glycogen levels in skeletal muscles” value with Gaa knockout mice [6] (10 and 20 mg/kg, compared to Lumizyme® 20 mg/kg) is recorded as “significantly better reduction of glycogen levels”. Further, in the data set with GAA KO mice [7], the “relative reduction of glycogen in quadriceps and triceps skeletal muscle” value is on record as “greater reduction of glycogen than Lumizyme®”. The compound also registered a Kuptake in data set [8] of 7 to 14 nM. Moreover, in data set [9] (compared with Lumizyme® rhGAA), the “internalization into normal and Pompe fibroblast cells” value is on record as “internalized to a greater degree than conventional Lumizyme® rhGAA”. Further, the “concentration that saturates cellular receptors” value in data set [9] was “about 20 nM”. Besides, the “volume of distribution (in words)” value in data set [10] (human) is reported as “relatively high volume of distribution”. In [10] (human, 5 mg/kg), the “AUC0-∞” value came out at 218 ng·h/mL, the exposure AUC(0-t) was 215 ng·h/mL, the maximum concentration (Cmax) worked out at 61 ng/mL and the Tmax worked out at 3.8 h. In [10] (human, 5 mg/kg), the Vss amounted to 4.62 L, the αt1/2 amounted to 1.1 h and the βt1/2 is 1.9 h. In data set [10] (human, 10 mg/kg), the “AUC0-∞” value was found to be 584 ng·h/mL, the AUC(0-t) was determined as 578 ng·h/mL, the Tmax was found to be 4.0 h and the αt1/2 came to 1.6 h. Further, the βt1/2 in data set [10] (human, 10 mg/kg) turned out to be 1.6 h. Moreover, in [10] (human, 20 mg/kg), the “AUC0-∞” value was found to be 1512 ng·h/mL, the exposure AUC(0-t) stood at 1508 ng·h/mL, the time of peak concentration (Tmax) was 4.0 h and the αt1/2 came out at 1.5 h. Also, the βt1/2 in data set [10] (human, 20 mg/kg) came out at 2.1 h. Further, the CLT in [10] (5 mg/kg) stood at 2.1 L/h. The compound also displayed a CLT in data set [10] (10 mg/kg) of 1.59 L/h. In data set [10] (20 mg/kg), this compound yielded a CLT of 1.22 L/h. In addition, the “intracellular accumulation of dystrophin” value in the data set on GAA KO mice [11] (6 months of administration, comparison with Lumizyme®) is “lowered intracellular accumulation of dystrophin”. In data set [1], the “apparent plasma half-life (t1/2)” value was approximately 0.75 h. Besides, in [12], the “safety and tolerability overall” value is “safe and well tolerated”. For the same compound, the “CIMPR binding compared with Lumizyme®” value with CIMPR [13] (FIG. 12A) is “bound to CIMPR significantly better than Lumizyme®”. The compound further showed a pKd with CIMPR [13] (M6P receptor plate binding assays) of 8.40 to 8.70.
As for “Lumizyme®: conventional rhGAA product (alglucosidase alfa) marketed by Genzyme”, in the data set with CIMPR [4], the “CIMPR binding compared with ATB200 rhGAA” value is “significantly less CIMPR binding”, the “rhGAA bound to CIMPR / containing M6P (eluted with M6P)” value turned out to be 22% and the “rhGAA that did not bind to the CIMPR (GAA activity eluted prior to addition of M6P)” value is on record as 78%. In addition, in data set [9] (extrapolated from uptake curves, FIG. 13C), the “uptake efficiency constant (Kuptake)” value is listed as 56 nM. Besides, in data set [9], the “concentration that saturates cellular receptors” value is on record as “about 250 nM”. In the data set with GAA KO mice [11] (12 biweekly administrations, ERT 20 mg/kg, miglustat 10 mg/kg, from baseline), the “functional muscle strength (grip strength and wire hang tests)” value is listed as “decline”.
